Among the data in patent US10266548B2, “Substituted benzylindazoles for use as Bub1 kinase inhibitors in the treatment of hyperproliferative diseases” (Bayer Intellectual Property GmbH, priority 2011, dated 2019) are IC50 values, retold here.

Each structure is given as a SMILES string. Structures can show the parent of a compound that is named as a salt. Where two headings read alike, the source gives them in different places. Where only a bound is given, the exact number is not on record here.

Assay [1] deals with catalytic domain of human Bub1 (amino acids 704-1085) (Homo sapiens (Human), UniProt O43683). Put plainly: Bub1 kinase assay (TR-FRET). Particulars: 10 μM ATP, 1 μM peptide substrate; read-out: Biological Assay 1: Bub1 kinase assay median IC50. The class given is biochemical. The method, boiled down:
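Phosphoserine product detected by TR-FRET (Eu-labeled anti-mouse IgG/anti-phosphoserine antibody to streptavidin-XL665) after 1 h at 22 °C. IC50 from 4-parameter logistic fit.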

The next assay deals with HeLa cells. Put plainly: Proliferation assay (HeLa cell line). In kind it is cell-based. Particulars: read-out: Biological Assay 2: Proliferation assay (HeLa cell line) median IC50. As to the method: Cultivated tumor cells (cells were ordered from ATCC, except HeLa-MaTu and HeLa-MaTu-ADR, which were ordered from EPO-GmbH, Berlin) were plated at a density of 1000 to 5000 cells/well, depending on the growth rate of the respective cell line, in a 96-well multititer plate in 200 μL of their respective growth medium supplemented 10% fetal calf serum. After 24 hours, the cells of one plate (zero-point plate) were stained with crystal violet (see below), while the medium of the other plates was replaced by fresh culture medium (200 μl), to which the test substances were added in various concentrations (0 μM, as well as in the range of 0.001-10 μM; the final concentration of the solvent dimethyl sulfoxide was 0.5%). The cells were incubated for 4 days in the presence of test substances. Cell proliferation was determined by staining the cells with crystal violet: the cells were fixed by adding 20 μl/measuring point of an 11% glutaric aldehyde solution for 15 minutes at room temperature. After three washing cycles of the fixed cells with water, the plates were dried at room temperature. The cells were stained by adding 100 μl/measuring point of a 0.1% crystal violet solution (pH 3.0). After three washing cycles of the stained cells with water, the plates were dried at room temperature. The dye was dissolved by adding 100 μl/measuring point of a 10% acetic acid solution. […] The change of cell number, in percent, was calculated by normalization of the measured values to the aborbtion values of the zero-point plate (=0%) and the absorbtion of the untreated (0 μm) cells (=100%). The IC50 values were determined by means of a 4 parameter fit using the company's own software.

[2] abbreviates: Homo sapiens, 96 h, 4 days, crystal violet.

catalytic domain of human Bub1 (amino acids 704-1085), sequence (O43683 704-1085): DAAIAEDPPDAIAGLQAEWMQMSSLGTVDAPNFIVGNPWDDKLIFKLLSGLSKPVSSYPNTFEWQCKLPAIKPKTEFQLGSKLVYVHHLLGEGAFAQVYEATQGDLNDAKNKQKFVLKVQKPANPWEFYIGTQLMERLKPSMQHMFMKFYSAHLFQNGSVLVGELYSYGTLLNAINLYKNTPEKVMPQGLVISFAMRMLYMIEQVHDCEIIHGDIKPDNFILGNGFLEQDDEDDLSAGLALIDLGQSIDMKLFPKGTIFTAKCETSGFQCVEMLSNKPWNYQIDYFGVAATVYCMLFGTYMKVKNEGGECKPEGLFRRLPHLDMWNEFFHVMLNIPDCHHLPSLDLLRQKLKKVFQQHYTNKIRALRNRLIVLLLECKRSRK

On to `NC(=O)c1cnccc1Nc1nc(-c2nn(Cc3ccccc3F)c3ccccc23)ncc1O` [Example 30-1, 4-({2-[1-(2-fluorobenzyl)-1H-indazol-3-yl]-5-hydroxypyrimidin-4-yl}amino)pyridine-3-carboxamide], for which the IC50 in assay [1] is 17 nM; in the assay on HeLa cells (setting [2]), at least 10 µM.
`COc1cnc(-c2nn(Cc3ccccc3C#N)c3ccccc23)nc1Nc1ccncc1` [Example 2-5-3, 2-({3-[5-methoxy-4-(pyridin-4-ylamino)pyrimidin-2-yl]-1H-indazol-1-yl}methyl) benzonitrile]: the IC50 in assay [1] was 21 nM; in the assay on HeLa cells (Homo sapiens, 96 h), at least 10 µM.
Consider `COc1cnc(-c2nn(Cc3c(Cl)ccc(CO)c3Cl)c3ccccc23)nc1Nc1ccncc1` [Example 8-1, [2,4-dichloro-3-({3-[5-methoxy-4-(pyridin-4-ylamino)pyrimidin-2-yl]-1H-indazol-1-yl}methyl)phenyl]methanol], for which the IC50 in assay [1] was determined as 7.4 nM; with HeLa cells (4 days, crystal violet) it was 3.2 µM.
As to `O=C(O)c1cnccc1Nc1nc(-c2nn(Cc3ccccc3F)c3ccccc23)ncc1O` [Example 30-2, 4-({2-[1-(2-fluorobenzyl)-1H-indazol-3-yl]-5-hydroxypyrimidin-4-yl}amino)pyridine-3-carboxylic acid], the IC50 in assay [1] is 20 nM; with HeLa cells (setting [2]), at least 10 µM.
As to `COc1cnc(-c2nn(Cc3ccc(S(=O)(=O)N4CCOCC4)cc3)c3ccccc23)nc1Nc1ccncc1` [Example 2-43-1, 5-methoxy-2-{1-[4-(morpholin-4-ylsulfonyl)benzyl]-1H-indazol-3-yl}-N-(pyridin-4-yl)pyrimidin-4-amine], the IC50 in assay [1] is 1200 nM; in the assay with HeLa cells (setting [2]) it was at least 10 µM.
For `CCOc1cc(F)c(Cn2nc(-c3nccc(N(C(C)=O)c4ccncc4)n3)c3ccccc32)c(F)c1` [Example 16-1, N-{2-[1-(4-ethoxy-2,6-difluorobenzyl)-1H-indazol-3-yl]pyrimidin-4-yl}-N-(pyridin-4-yl)acetamide], in that order: 170 nM and 2.8 µM.
The like results for `CCOc1cc(F)c(Cn2nc(-c3ncc(OCCNC(=O)OC(C)(C)C)c(Nc4ccncc4)n3)c3ccccc32)c(F)c1` [Example 4-23, tert-butyl [2-({2-[1-(4-ethoxy-2,6-difluorobenzyl)-1H-indazol-3-yl]-4-(pyridin-4-ylamino)pyrimidin-5-yl}oxy)ethyl]carbamate] were, in that order, 9.3 nM and 4.9 µM.
Regarding `COc1ccc(Cn2nc(-c3ncc(OC)c(Nc4ccncc4)n3)c3ccccc32)cc1` [Example 2-23-1, 5-methoxy-2-[1-(4-methoxybenzyl)-1H-indazol-3-yl]-N-(pyridin-4-yl)pyrimidin-4-amine], the IC50 in assay [1] was 13 nM; in the assay on HeLa cells (Homo sapiens, 96 h), 9.3 µM.
Turning to `COc1cnc(-c2nn(Cc3c(F)cc(OC(F)F)cc3F)c3ccccc23)nc1Nc1ccncc1` [Example 2-39-1, 2-{1-[4-(difluoromethoxy)-2,6-difluorobenzyl]-1H-indazol-3-yl}-5-methoxy-N-(pyridin-4-yl)pyrimidin-4-amine], the IC50 in assay [1] was determined as 5.6 nM; in the assay on HeLa cells (Homo sapiens, 96 h), 3.6 µM.
The like results for `CCOC(=O)C(C)(C)c1cccc(Cn2nc(-c3ncc(OC)c(Nc4ccncc4)n3)c3ccccc32)c1` [Example 2-41-1, ethyl 2-[3-({3-[5-methoxy-4-(pyridin-4-ylamino)pyrimidin-2-yl]-1H-indazol-1-yl}methyl)phenyl]-2-methylpropanoate] were, in that order, 150 nM and 7.9 µM.
As to `COc1cnc(-c2nn(Cc3ccc(S(=O)(=O)NC4CC4)cc3)c3ccccc23)nc1Nc1ccncc1` [Example 2-37-1, N-cyclopropyl-4-({3-[5-methoxy-4-(pyridin-4-ylamino)pyrimidin-2-yl]-1H-indazol-1-yl}methyl)benzenesulfonamide], the IC50 in assay [1] was 71 nM; in the assay on HeLa cells (setting [2]) it was at least 10 µM.
For the compound `COc1cnc(-c2nn(Cc3ccccc3Cl)c3ccccc23)nc1Nc1ccncc1` [Example 2-10-1, 2-[1-(2-chlorobenzyl)-1H-indazol-3-yl]-5-methoxy-N-(pyridin-4-yl)pyrimidin-4-amine], the IC50 in assay [1] was 6.7 nM; with HeLa cells (Homo sapiens, 96 h), at least 10 µM.
In the case of `COc1ccc(Cn2nc(-c3ncc(OC)c(Nc4cc(F)nc(F)c4)n3)c3ccccc32)cc1` [Example 34-2, N-(2,6-difluoropyridin-4-yl)-5-methoxy-2-[1-(4-methoxybenzyl)-1H-indazol-3-yl]pyrimidin-4-amine], the IC50 in assay [1] was 6200 nM; in the assay with HeLa cells (Homo sapiens, 96 h), at least 10 µM.
In the case of `Fc1ccccc1Cn1nc(-c2ncc(OCCc3nnn[nH]3)c(Nc3ccncc3)n2)c2ccccc21` [Example 4-5-1, 2-[1-(2-fluorobenzyl)-1H-indazol-3-yl]-N-(pyridin-4-yl)-5-[2-(1H-tetrazol-5-yl)ethoxy] pyrimidin-4-amine], the IC50 in assay [1] is 18 nM; in the assay with HeLa cells (setting [2]), at least 10 µM.
Regarding `COc1ccc(Cn2nc(-c3ncc(OC)c(Nc4cc[nH]c(=O)c4)n3)c3ccccc32)cc1` [Example 24-7, 4-({5-methoxy-2-[1-(4-methoxybenzyl)-1H-indazol-3-yl]pyrimidin-4-yl}amino)pyridin-2(1H)-one], the IC50 in assay [1] amounted to 1200 nM; in the assay on HeLa cells (Homo sapiens, 96 h), 10 µM.
As to `COc1cnc(-c2nn(Cc3c(Cl)ccc(C(N)=O)c3Cl)c3ccccc23)nc1Nc1ccncc1` [Example 20-2, 2,4-dichloro-3-({3-[5-methoxy-4-(pyridin-4-yla-mino)pyrimidin-2-yl]-1H-indazol-1-yl}methyl) benzamide], the IC50 was determined as 40 nM in assay [1] and 3.3 µM in the assay on HeLa cells (setting [2]).
Take `CNC(=O)c1ccc(Cn2nc(-c3ncc(OC)c(Nc4ccncc4)n3)c3ccccc32)c(Cl)c1` [Example 29-2, 3-chloro-4-({3-[5-methoxy-4-(pyridin-4-ylamino)pyrimidin-2-yl]-1H-indazol-1-yl}methyl)-N-methylbenzamide]: the IC50 in assay [1] is 8.9 nM; in the assay with HeLa cells (4 days, crystal violet), at least 10 µM.
With `COc1cnc(-c2nn(Cc3ccc(Cl)cc3Cl)c3ccccc23)nc1Nc1ccncc1` [Example 2-19-1, 2-[1-(2,4-dichlorobenzyl)-1H-indazol-3-yl]-5-methoxy-N-(pyridin-4-yl)pyrimidin-4-amine], the IC50 worked out at 10 nM in assay [1] and 3.4 µM with HeLa cells (setting [2]).
Turning to `CCOc1cc(F)c(Cn2nc(-c3ncc(O)c(Nc4ccncc4)n3)c3ccccc32)c(F)c1` [Example 3-1, 2-[1-(4-ethoxy-2,6-difluorobenzyl)-1H-indazol-3-yl]-4-(pyridin-4-ylamino)pyrimidin-5-ol], the IC50 in assay [1] was 4.7 nM; in the assay on HeLa cells (Homo sapiens, 96 h), at least 10 µM.
For `COc1cnc(-c2nn(Cc3ccc(I)cc3F)c3ccccc23)nc1Nc1ccncc1` [Example 2-20-1, 2-[1-(2-fluoro-4-iodobenzyl)-1H-indazol-3-yl]-5-methoxy-N-(pyridin-4-yl)pyrimidin-4-amine], in that order: 11 nM and 7.3 µM.
For `COc1cnc(-c2nn(Cc3c(Cl)ccc(CO)c3Cl)c3ccccc23)nc1Nc1ccncc1` [Example 15-5, [2,4-dichloro-3-({3-[5-methoxy-4-(pyridin-4-ylamino)pyrimidin-2-yl]-1H-indazol-1-yl}methyl)phenyl] methanol hydrochloride (1:1)], the IC50 was 12 nM in assay [1] and 9.9 µM in the assay with HeLa cells (4 days, crystal violet).
For `CCOc1cc(F)c(Cn2nc(-c3ncc(OC)c(Nc4c(F)cncc4F)n3)c3ccccc32)c(F)c1` [Example 39-2], in that order: 670 nM and at least 10 µM.
